Literature values in PubChem BioAssay AID1259409 (Chemical Carcinogenesis Research Information System (CCRIS), 2018).
“And” between values parts separate entries of the source, which are not always exact repeats. Equal values may be shown once.

System: rodent chemically induced tumor inhibition, incidence and multiplicity
Test: CCRIS tumor inhibitor studies

In the case of O=C(O[C@@H]1Cc2c(O)cc(O)cc2O[C@@H]1c1cc(O)c(O)c(O)c1)c1cc(O)c(O)c(O)c1, the “tumour outcome (control, treated, inhibition, significance)” value (Carcinogen: 4-(METHYLNITROSAMINO)-1-(3-PYRIDYL)-1-BUTANONE, 64091-91-4, Dose [Inhibitor]: 0, 560 PPM IN DRINKING WATER FOR 13 WK BEGINNING 2 WK PRIOR TO CARCINOGEN TREATMENT (STUDY DURATION: 18 WK), Route [Inhibitor]: ORAL, Species: MOUSE, Strain/Sex: STRAIN-A/FEMALE, Target Tissue: Type of Lesion: LUNG: ADENOMA, Dose [Carcinogen]: 11.65 MG/KG 3/WK FOR 10 WK, Promoter: NONE USED) is listed as 100%, 100%, 0%, not significant, the “tumour outcome (control, treated, inhibition, significance)” value (Carcinogen: 4-NITROQUINOLINE-N-OXIDE (56-57-5), Dose [Inhibitor]: 0.05% IN DIET FOR 25 WKS (STUDY DURATION: 25 WKS), Route [Inhibitor]: DIET, Species: MOUSE, Strain/Sex: DDY/MALE (10,10)/(10,?), Target Tissue: Type of Lesion: LUNG, Dose [Carcinogen]: 10 MG/KG BW ONCE, Promoter: CACODYLIC ACID (75-60-5)) is listed as 100%, 70%, 30%, not calculated and the “tumour outcome (control, treated, inhibition, significance)” value (Carcinogen: 7,12-DIMETHYLBENZ[A]ANTHRACENE, 57-97-6, Dose [Inhibitor]: 0, 0.5% (81% EGCG) IN DIET OF RATS WITH TUMORS AT 13 WK POST CARCINOGEN DOSE (STUDY DURATION: 36 WK), Route [Inhibitor]: ORAL, Species: RAT, Strain/Sex: SPRAGUE-DAWLEY/FEMALE, Target Tissue: Type of Lesion: MAMMARY GLAND: CARCINOMA, Dose [Carcinogen]: 50 MG/KG BW ONCE, Promoter: NONE USED) is listed as 14/14 (100%), 14/14 (100%), 0%, not significant. For the same compound, the “tumour outcome (control, treated, inhibition, significance)” value (Carcinogen: 7,12-DIMETHYLBENZ[A]ANTHRACENE, 57-97-6, Dose [Inhibitor]: 0, 0.5% (81% EGCG) IN DIET OF RATS WITHOUT TUMORS AT 13 WK POST CARCINOGEN DOSE (STUDY DURATION: 36 WK), Route [Inhibitor]: ORAL, Species: RAT, Strain/Sex: SPRAGUE-DAWLEY/FEMALE, Target Tissue: Type of Lesion: MAMMARY GLAND: CARCINOMA, Dose [Carcinogen]: 50 MG/KG BW ONCE, Promoter: NONE USED) was 11/14 (79%), 12/14 (86%), -9%, not significant, the “tumour outcome (control, treated, inhibition, significance)” value (Carcinogen: 7,12-DIMETHYLBENZ[A]ANTHRACENE, 57-97-6, Dose [Inhibitor]: 0, 0.5% POLYPHEN E (58.4% EGCG) IN DIET OF RATS WITH TUMORS AT 13 WK POST CARCINOGEN DOSE (STUDY DURATION: 36 WK), Route [Inhibitor]: ORAL, Species: RAT, Strain/Sex: SPRAGUE-DAWLEY/FEMALE, Target Tissue: Type of Lesion: MAMMARY GLAND: CARCINOMA, Dose [Carcinogen]: 50 MG/KG BW ONCE, Promoter: NONE USED) was 14/14 (100%), 14/14 (100%), 0%, not significant and the “tumour outcome (control, treated, inhibition, significance)” value (Carcinogen: 7,12-DIMETHYLBENZ[A]ANTHRACENE, 57-97-6, Dose [Inhibitor]: 0, 5 UMOL IN 0.2 ML ACETONE 1/D FOR 7 D PRIOR TO CARCINOGEN DOSE (STUDY DURATION: 16 WK), Route [Inhibitor]: DERMAL, Species: MOUSE, Strain/Sex: SENCAR/FEMALE, Target Tissue: Type of Lesion: SKIN: TUMOR, Dose [Carcinogen]: 10 NMOL IN 0.2 ML ACETONE ONCE, Promoter: 12-O-TETRADECANOYLPHORBOL-13-ACETATE, 16561-29-8) was 100%, 100%, 0%, not significant. The “tumour outcome (control, treated, inhibition, significance)” value (Carcinogen: N-ETHYL-N'-NITRO-N-NITROSGUANIDINE, 4245-77-6, Dose [Inhibitor]: 0, 0.005% IN DIET FOR 12 WK BEGINNING POST CARCINOGEN TREATMENT (STUDY DURATION: 16 WK), Route [Inhibitor]: ORAL, Species: MOUSE, Strain/Sex: C57BL/MALE, Target Tissue: Type of Lesion: DUODENUM: TUMOR, Dose [Carcinogen]: 100 MG/L IN DRINKING WATER FOR 4 WK, Promoter: NONE USED) was 63%, 20%, 68%, p<0.001, the “tumour outcome (control, treated, inhibition, significance)” value (Carcinogen: N-ETHYL-N'-NITRO-N-NITROSOGUANIDINE, 4245-77-6, Dose [Inhibitor]: 0, 0.005% IN DIET FOR 12 WK BEGINNING POST CARCINOGEN TREATMENT (STUDY DURATION: 16 WK), Route [Inhibitor]: ORAL, Species: MOUSE, Strain/Sex: C57BL/MALE, Target Tissue: Type of Lesion: DUODENUM: TUMOR, Dose [Carcinogen]: 100 MG/L IN DRINKING WATER FOR 4 WK, Promoter: NONE USED) was 63%, 20%, 68%, p<0.001 and the “tumour outcome (control, treated, inhibition, significance)” value (Carcinogen: N-ETHYL-N'-NITRO-N-NITROSOGUANIDINE, 4245-77-6, Dose [Inhibitor]: 0.005% (0.15 MG/MOUSE/D) IN DRINKING WATER FOR 12 WK POST CARCINOGEN DOSE (STUDY DURATION: 16 WK), Route [Inhibitor]: ORAL, Species: MOUSE, Strain/Sex: C57BL/MALE, Target Tissue: Type of Lesion: DUODENUM: TUMOR, Dose [Carcinogen]: 100 MG/L DRINKING WATER FOR 4 WK, Promoter: NONE USED) was 10/16 (63%), 3/15 (20%), 68%, p<0.001. For the same compound, the “tumour outcome (control, treated, inhibition, significance)” value (Carcinogen: N-METHYL-N'-NITRO-N-NITROSOGUANIDINE, 70-25-7, Dose [Inhibitor]: 0, 0.05% IN DIET FOR 16 WK BEGINNING POST CARCINOGEN TREATMENT (STUDY DURATION: 44 WK), Route [Inhibitor]: ORAL, Species: RAT, Strain/Sex: WISTAR/MALE, Target Tissue: Type of Lesion: STOMACH: TUMOR, Dose [Carcinogen]: 80 MG/L IN DRINKING WATER FOR 28 WK, Promoter: NONE USED) was 62%, 31%, 50%, p<0.05, the “tumour outcome (control, treated, inhibition, significance)” value (Carcinogen: N-METHYL-N'-NITRO-N-NITROSOGUANIDINE, 70-25-7, Dose [Inhibitor]: 0, 0.05% IN DRINKING WATER FOR 15 WK (STUDY DURATION: 44 WK), Route [Inhibitor]: ORAL, Species: RAT, Strain/Sex: WISTAR/MALE, Target Tissue: Type of Lesion: GLANDULAR STOMACH: TUMOR, Dose [Carcinogen]: 80 MG/L IN DRINKING WATER FOR 28 WK, Promoter: NONE USED) was 21/34 (62%), 11/35 (31%), 50%, p<0.05 and the “tumour outcome (control, treated, inhibition, significance)” value (Carcinogen: N-METHYL-N'-NITRO-N-NITROSOGUANIDINE, 70-25-7, Dose [Inhibitor]: 0, 0.05% IN DRINKING WATER FOR 15 WK BEGINNING POST CARCINOGEN TREATMENT (STUDY DURATION: 44 WK), Route [Inhibitor]: ORAL, Species: RAT, Strain/Sex: WISTAR/MALE, Target Tissue: Type of Lesion: GLANDULAR STOMACH: TUMOR, Dose [Carcinogen]: 80 MG/L IN DRINKING WATER FOR 28 WK, Promoter: NONE USED) was 21/34 (62%), 11/35 (31%), 50%, p<0.05. For the same compound, the “tumour outcome (control, treated, inhibition, significance)” value (Carcinogen: NONE USED, Dose [Inhibitor]: 0, 0.05% IN DRINKING WATER AD LIBITUM FOR 58 WK (STUDY DURATION: 65 WK), Route [Inhibitor]: ORAL, Species: MOUSE, Strain/Sex: C3H/HENCRJ/MALE, Target Tissue: Type of Lesion: LIVER: HEPATOMA, Promoter: NONE USED) was 15/18 (83%), 14/25 (56%), 33%, p<0.05 and the “tumour outcome (control, treated, inhibition, significance)” value (Carcinogen: NONE USED, Dose [Inhibitor]: 0, 0.1% IN DRINKING WATER AD LIBITUM FOR 58 WK (STUDY DURATION: 65 WK), Route [Inhibitor]: ORAL, Species: MOUSE, Strain/Sex: C3H/HENCRJ/MALE, Target Tissue: Type of Lesion: LIVER: HEPATOMA, Promoter: NONE USED) was 15/18 (83%), 12/23 (52%), 37%, p<0.05.

For CSC[C@H](N)C(=O)O, the “tumour outcome (control, treated, inhibition, significance)” value (Carcinogen: 7,12-DIMETHYLBENZ[A]ANTHRACENE, 57-97-6, Dose [Inhibitor]: 0, 0.005 MOL/KG DIET BEGINNING 2 WK PRIOR TO CARCINOGEN AND CONTINUED FOR STUDY DURATION (STUDY DURATION: 25 WK), Route [Inhibitor]: ORAL, Species: RAT, Strain/Sex: CD-1/FEMALE, Target Tissue: Type of Lesion: MAMMARY GLAND: ADENOCARCINOMA, Dose [Carcinogen]: 10 MG ONCE, Promoter: NONE USED) is listed as 22/25 (88%), 19/25 (76%), 14%, not significant, the “tumour outcome (control, treated, inhibition, significance)” value (Carcinogen: 7,12-DIMETHYLBENZ[A]ANTHRACENE, 57-97-6, Dose [Inhibitor]: 0, 0.015 MOL/KG DIET BEGINNING 1 WK POST CARCINOGEN AND CONTINUED FOR STUDY DURATION (STUDY DURATION: 25 WK), Route [Inhibitor]: ORAL, Species: RAT, Strain/Sex: CD-1/FEMALE, Target Tissue: Type of Lesion: MAMMARY GLAND: ADENOCARCINOMA, Dose [Carcinogen]: 10 MG ONCE, Promoter: NONE USED) is listed as 23/30 (77%), 14/30 (47%), 39%, p<0.05 and the “tumour outcome (control, treated, inhibition, significance)” value (Carcinogen: 7,12-DIMETHYLBENZ[A]ANTHRACENE, 57-97-6, Dose [Inhibitor]: 0, 0.015 MOL/KG DIET BEGINNING 2 WK PRIOR TO CARCINOGEN AND CONTINUED 1 WK POST CARCINOGEN (STUDY DURATION: 25 WK), Route [Inhibitor]: ORAL, Species: RAT, Strain/Sex: CD-1/FEMALE, Target Tissue: Type of Lesion: MAMMARY GLAND: ADENOCARCINOMA, Dose [Carcinogen]: 10 MG ONCE, Promoter: NONE USED) is listed as 23/30 (77%), 21/30 (70%), 9%, not significant. The “tumour outcome (control, treated, inhibition, significance)” value (Carcinogen: 7,12-DIMETHYLBENZ[A]ANTHRACENE, 57-97-6, Dose [Inhibitor]: 0, 0.015 MOL/KG DIET BEGINNING 2 WK PRIOR TO CARCINOGEN AND CONTINUED FOR STUDY DURATION (STUDY DURATION: 25 WK), Route [Inhibitor]: ORAL, Species: RAT, Strain/Sex: CD-1/FEMALE, Target Tissue: Type of Lesion: MAMMARY GLAND: ADENOCARCINOMA, Dose [Carcinogen]: 10 MG ONCE, Promoter: NONE USED) was 22/25 (88%), 13/25 (52%), 41%, p<0.05.

For Cc1cc(C)c(C)c(O)c1C, the “tumour outcome (control, treated, inhibition, significance)” value (Carcinogen: BENZO[A]PYRENE, 50-32-8, Dose [Inhibitor]: 0.03 MMOL/G OF DIET DAILY STARTING 7 D BEFORE AND CONTINUING THROUGH 3 D AFTER CARCINOGEN TREATMENT FOLLOWED BY OBSERVAT, Route [Inhibitor]: ORAL, Species: MOUSE, Strain/Sex: ICR/FEMALE, Target Tissue: Type of Lesion: FORESTOMACH: NEOPLASM, Dose [Carcinogen]: 1 MG IN 0.2 ML CORN OIL 2/WK FOR 4 WK, Promoter: NONE USED) is listed as 97%, 88%, 9%, not significant and 94%, 89%, 5%, not significant.
